We go through seven molecules from patent publication US9487516B2, “Antibacterial oxadiazolone derivatives” (priority 2013, dated 2016).

Holding throughout (assay): Bacterial growth minimal inhibitory concentration (microdilution, cation-adjusted Mueller-Hinton Broth)
Type in all cases: cell-based

Assay [1] relates to Acinetobacter baumanii T6474. Conditions: Acinetobacter baumannii, multiply-resistant strain (in particular quinolone-resistant). As to the method: (§1) Minimal Inhibitory Concentrations (MICs; mg/L) were determined in cation-adjusted MuellerHinton Broth by a microdilution method following the description given in “Methods for Dilution Antimicrobial Susceptibility Tests for Bacteria that Grow Aerobically”, Approved standard, 7th ed., Clinical and Laboratory Standards Institute (CLSI) Document M7-A7, Wayne, Pa., USA, 2006.
(§2) All Example compounds were tested against several Gram positive and Gram negative bacteria. […] Staphylococcus aureus A798, Enterococcus faecium A949 and Acinetobacter baumanii T6474 are multiply-resistant strains (in particular quinolone-resistant), while Moraxella catarrhalis A894 is a quinolone-sensitive strain and Staphylococcus aureus ATCC29213 is a methicillin-sensitive and quinolone-sensitive strain.

Assay [2] deals with Enterococcus faecium A949. Conditions: multiply-resistant strain (in particular quinolone-resistant), read-out: MIC for E. faecium A949. As for the experimental part: as §1, §2
In assay [3] the test system is Moraxella catarrhalis A894. Conditions: quinolone-sensitive strain. As to the method: as §1, §2
For assay [4], the system named is Staphylococcus aureus A798. Conditions: multiply-resistant strain (in particular quinolone-resistant), read-out: MIC for S. aureus A798. As to the method: as §1, §2
For assay [5], the system named is Staphylococcus aureus ATCC29213. Conditions: methicillin-sensitive and quinolone-sensitive strain, read-out: MIC for S. aureus ATCC29213. As for the experimental part:
as §1, §2

In brackets after ≈: the same amount, converted by molar mass.

For the molecule `O=C1COc2ccc(-n3nc(CCCN[C@H]4Cn5c(=O)cnc6ccc(F)c4c65)oc3=O)nc2N1` [Example 6, (R)-7-fluoro-6-{3-[5-oxo-4-(3-oxo-3,4-dihydro-2H-pyrido[3,2-b][1,4]oxazin-6-yl)-4,5-dihydro-[1,3,4]oxadiazol-2-yl]-propylamino}-5,6-dihydro-pyrrolo[1,2,3-de]quinoxalin-3-one], the MIC turned out to be 2 µg/mL (≈ 4.17 µM) in assay [1]; 2 µg/mL (≈ 4.17 µM) in assay [2]; 0.5 µg/mL (≈ 1.04 µM) in assay [3]; 0.5 µg/mL (≈ 1.04 µM) in assay [4]; 0.5 µg/mL (≈ 1.04 µM) in assay [5].

As to `O=C1COc2ccc(-n3nc(CCCN[C@@H]4Cn5c(=O)ccc6ccc(F)c4c65)oc3=O)cc2N1` [Example 11, (S)-9-fluoro-1-{3-[5-oxo-4-(3-oxo-3,4-dihydro-2H-benzo[1,4]oxazin-6-yl)-4,5-dihydro-[1,3,4]oxadiazol-2-yl]-propylamino}-1,2-dihydro-pyrrolo[3,2,1-ij]quinolin-4-one], the MIC was 0.25 µg/mL (≈ 0.524 µM) in assay [1]; 0.25 µg/mL (≈ 0.524 µM) in assay [2]; ≤ 0.016 µg/mL in assay [3]; 0.063 µg/mL (≈ 0.132 µM) in assay [4]; 0.031 µg/mL (≈ 0.0649 µM) in assay [5].

For the molecule `O=C1COc2ccc(-n3nc(CCCN[C@@H]4Cn5c(=O)cnc6ccc(F)c4c65)oc3=O)cc2N1` [Example 10, (S)-7-fluoro-6-{3-[5-oxo-4-(3-oxo-3,4-dihydro-2H-benzo[1,4]oxazin-6-yl)-4,5-dihydro-[1,3,4]oxadiazol-2-yl]-propylamino}-5,6-dihydro-pyrrolo[1,2,3-de]quinoxalin-3-one], the MIC in assay [1] is 0.25 µg/mL (≈ 0.523 µM); in assay [2] it was 0.5 µg/mL (≈ 1.05 µM); in assay [3], ≤ 0.016 µg/mL; in assay [4], 0.063 µg/mL (≈ 0.132 µM); in assay [5], 0.031 µg/mL (≈ 0.0648 µM).

With `O=C1CSc2ccc(-n3nc(CCCN[C@@H]4Cn5c(=O)cnc6ccc(F)c4c65)oc3=O)cc2N1` [Example 20, (S)-7-fluoro-6-{3-[5-oxo-4-(3-oxo-3,4-dihydro-2H-benzo[1,4]-thiazin-6-yl)-4,5-dihydro-[1,3,4]oxadiazol-2-yl]-propylamino}-5,6-dihydro-pyrrolo[1,2,3-de]quinoxalin-3-one], the MIC in assay [1] is ≤ 0.016 µg/mL; in assay [2], 0.25 µg/mL (≈ 0.506 µM); in assay [3] it was 0.063 µg/mL (≈ 0.127 µM); in assay [4], ≤ 0.016 µg/mL; in assay [5], ≤ 0.016 µg/mL.

As for `O=C1COc2ccc(-n3nc(CCCN[C@H]4Cn5c(=O)cnc6cccc4c65)oc3=O)nc2N1` [Example 36, (R)-6-{3-[5-oxo-4-(3-oxo-3,4-dihydro-2H-pyrido[3,2-b][1,4]oxazin-6-yl)-4,5-dihydro-[1,3,4]oxadiazol-2-yl]-propylamino}-5,6-dihydro-pyrrolo[1,2,3-de]quinoxalin-3-one], the MIC was found to be 4 µg/mL (≈ 8.67 µM) in assay [1]; 8 µg/mL (≈ 17.3 µM) in assay [2]; 2 µg/mL (≈ 4.33 µM) in assay [3]; 4 µg/mL (≈ 8.67 µM) in assay [4]; 4 µg/mL (≈ 8.67 µM) in assay [5].

As for `O=c1oc(CCCN[C@@H]2Cn3c(=O)ccc4ccc(F)c2c43)nn1-c1ccc2c(c1)OCCO2` [Example 22, (S)-1-{3-[4-(2,3-dihydro-benzo[1,4]dioxin-6-yl)-5-oxo-4,5-dihydro-[1,3,4]oxadiazol-2-yl]-propylamino}-9-fluoro-1,2-dihydro-pyrrolo[3,2,1-ij]quinolin-4-one], the MIC is 8 µg/mL (≈ 17.2 µM) in assay [1]; > 8 µg/mL in assay [2]; 4 µg/mL (≈ 8.61 µM) in assay [3]; > 8 µg/mL in assay [4]; 4 µg/mL (≈ 8.61 µM) in assay [5].

With `COc1ccc2ccc(=O)n3c2c1[C@H](NCCCc1nn(-c2ccc4c(n2)NC(=O)CO4)c(=O)o1)C3` [Example 39, (S)-9-methoxy-1-{3-[5-oxo-4-(3-oxo-3,4-dihydro-2H-pyrido[3,2-b][1,4]oxazin-6-yl)-4,5-dihydro-[1,3,4]oxadiazol-2-yl]-propylamino}-1,2-dihydro-pyrrolo[3,2,1-ij]quinolin-4-one], the MIC was 1 µg/mL (≈ 2.04 µM) in assay [1]; 8 µg/mL (≈ 16.3 µM) in assay [2]; 1 µg/mL (≈ 2.04 µM) in assay [3]; 2 µg/mL (≈ 4.08 µM) in assay [4]; 1 µg/mL (≈ 2.04 µM) in assay [5].
